Data reported in a melting point compilation (Tetko et al.; mined from patent text by program, amines drawn as free bases though some values may be those of a salt).

| Structure (SMILES) | melting point |
| --- | --- |
| Cc1oc(-c2ccccc2)nc1CCOc1ccc(C=CC=CC=C2OC(=O)NC2=O)cc1 | 209 to 211 °C |
| CC(C)(C)c1ccc(C(=O)Nc2ccc(OCC(=O)O)cc2)cc1 | 179 to 181 °C |
| CCOC(=O)c1ccc(NC(C)=O)c(CC(O)CO)c1 (stereo not given) | 114 to 116 °C |
| CSC(=C[N+](=O)[O-])NCCSCc1ccc(CN(C)C)o1 | 71 °C |
| COC(=O)C1=Cc2cc(-c3ccc(N4CCCCC4)cc3)ccc2S(=O)(=O)CC1 | 202 to 204 °C |
| O=C(Cl)N1CC(Oc2ccccc2Cl)C1 | 80 to 82 °C |
| CCN1c2ncc(CCc3ccc4ccccc4c3)cc2C(=O)N(C)c2ccc(F)nc21 | 112 to 114 °C |
| Oc1ccc2c(c1Cl)Sc1ccccc1N2 | 110 °C |
| CC(=O)NC[C@H]1CN(c2ccc3c(c2)CS(=O)(=O)CC3)C(=O)O1 | 177 to 179 °C |
| O=C(O)CN1C(=O)C(=Cc2ccc(OCc3ccccc3)c(OCc3ccc(F)c(F)c3)c2)SC1=S | 231 to 236 °C |
| C1=CC2=C(CCCC2)n2c3c(c4cnccc42)CCC=C13 | 134 to 137 °C |
| COc1cc2c(Nc3ccc4cn[nH]c4c3)c(C#N)cnc2cc1OCCN(C)C | 218 to 219 °C |
| N#CC1=Nc2nc(C3CCCC3)[nH]c2C2=N[C@H](Cc3ccccc3)CN12 | 140 to 142 °C |
| COCCOCCN1C(=O)C2(c3cc4c(cc3OC2OC)OCCO4)c2c(OC)cccc21 (stereo not given) | 109 to 110 °C |
| CC(C(N)=O)c1ccc2c(c1)Oc1ccccc1CC2=O (stereo not given) | 159 to 160 °C |
| COc1cc(C#N)ccc1Cc1cn(C)c2ccc([N+](=O)[O-])cc12 | 200 to 201 °C |
| CCOC(=O)C1CCC(n2nc(-c3c(-c4ccccc4)nn4ccccc34)ccc2=O)CC1 (stereo not given) | 156 to 160 °C |
| NC(=O)[C@@H]1[C@H](Nc2c(Br)cnc3[nH]c(-c4ccsc4)nc23)[C@H]2C=C[C@@H]1C2 | 238 to 241 °C |
| Cc1cccc(Nc2cc(Cl)nc(SCC(=O)NN)n2)c1C | 185 to 189 °C |
| CCOC(=O)c1cc2ccc3c4ccccc4ccc3c2n1C | 136 to 138 °C |

| Structure (SMILES) | melting point |
| --- | --- |
| CC(C)Oc1n[nH]c(=O)n1C | 142 °C |
| COCOc1ccc2cc(C=O)ccc2c1 | 52 to 54 °C |
| Cc1cc2c(cc1C)-n1c(n[nH]c1=O)C=C(c1ccc(-n3c(C)nc4cnccc43)cc1)N2 | > 325 °C |
| COc1cc2[nH]cc(C(=O)NN3CCNC3=O)c(=O)c2cc1OC | > 300 °C |
| C[C@@H]1c2sccc2CN(C)[C@H]1CCNC(=O)c1ccc(NS(C)(=O)=O)cc1 (relative stereo) | 67 to 74 °C |
| O=C(CCCBr)N1CC(c2ccc(Cl)cc2)Sc2ccccc21 (stereo not given) | 91 to 92 °C |
| CCc1c(-c2ccc(OC)cc2)c2c(C(=O)O)c(C(=O)O)c3cc(OC)cc1n32 | 209 to 211 °C |
| COC(=O)CCCc1cc2nc(Cl)ccc2n1S(=O)(=O)c1ccc2c(c1)CCO2 | 201 °C |
| CCCCCCCCN1C(=O)NC2(CC(C)(CC)NC(C)(CC)C2C)C1=O (stereo not given) | 65 to 67 °C |
| O=c1oc(-c2ccccc2)cc(O)c1CCCc1ccccc1 | 195 to 196 °C |
| COC[C@H]1CN(c2ccc(CCC[C@@H](C)O)cc2)C(=O)O1 | 65 °C |
| Cc1ccc(N2CCN(c3c(C)c(O)c4c(c3C)CC(C)(C)O4)CC2)cc1 | 185 to 189 °C |
| C(=C\c1cc(/C=C/c2ccc3cc[nH]c3c2)n[nH]1)/c1ccc(OCc2ccccn2)cc1 | 211 to 214 °C |
| Cc1c2n(c3ccccc13)C(=O)C(Cc1c[nH]cn1)CC2 (stereo not given) | 156 to 157 °C |
| CN=C(N)Nc1nc(CCCCNC(=NC#N)NC)cs1 | 119 to 122 °C |
| CC(=O)N1C(=O)C(C(=O)c2cccnc2)c2ccccc21 (stereo not given) | 141 to 142 °C |
| CC(C)(C)OC(=O)NNCCC12CC3CC(CC(C3)C1)C2 | 73.5 to 81 °C |
| CCOC(=O)c1ccc(-c2ccc(OCCNC3CC3)c(-c3ccc4c(c3)C(C)(C)CCC4(C)C)c2)cc1 | 141 °C |
| OC1CCSC(=S)N1c1ccccn1 (stereo not given) | 120 °C |
| CC(=N)Nc1cccc(CNO)c1 | 214 to 215 °C |
